Where a name gives a salt, the structure may show the parent alone.

The first experiment has as its system Acinetobacter baumannii ATCC17961. Nature of the experiment: Antimicrobial susceptibility testing: 90% growth inhibitory concentration (IC90) determination in Iso-Sensitest broth, OD600 growth. In kind it is cell-based. The settings on record: Acinetobacter baumannii, ATCC17961, 16 h, read-out: A. baumannii ATCC 17961 IC90 (uM), strain ATCC 17961, OD600 growth over 16 h. The method in brief:
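OD600 read every 20 min for 16 h at 35±2° C; inhibition taken in log phase to derive IC90. Twofold, 10-point dilutions (e.g. 50–0.097 μM final), inoculum ~5×10^(5) CFU/ml.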
A word on the IC90: it is the concentration at which the effect reaches the 90% level. In the case of `CCc1cc(Nc2nccn3c(-c4cn(CC#N)nc4C(F)(F)F)cnc23)ccc1C(=O)NCC1CC1N` (stereo not drawn) [Example 623, N-((2-aminocyclopropyl)methyl)-4-((3-(1-(cyanomethyl)-3-(trifluoromethyl)-1H-pyrazol-4-yl)imidazo[1,2-a]pyrazin-8-yl)amino)-2-ethylbenzamide formate], the IC90 worked out at 0.161 µM.

In the case of `O=C(NCCCNC(=O)[C@@H]1C[C@@H](O)CN1)c1ccc(Nc2nccn3c(-c4c[nH]nc4C(F)(F)F)cnc23)cc1Cl` [Example 429, (2S,4R)-N-[3-[[2-chloro-4-[[3-[3-(trifluoromethyl)-1H-pyrazol-4-yl]imidazo[1,2-a]pyrazin-8-yl]amino]benzoyl]amino]propyl]-4-hydroxypyrrolidine-2-carboxamide formate], the 90% effect concentration (IC90) was 1.07 µM. As to `CCc1cc(Nc2nccn3c(-c4cn(CC(F)F)nc4C(F)(F)F)cnc23)ccc1C(=O)NCCCNC(=O)CCN` [Example 630, N-(3-(3-aminopropanamido)propyl)-4-((3-(1-(2,2-difluoroethyl)-3-(trifluoromethyl)-1H-pyrazol-4-yl)imidazo[1,2-a]pyrazin-8-yl)amino)-2-ethylbenzamide formate], the IC90 came to 0.206 µM.

Regarding `O=C(N[C@H]1CNC[C@@H]1O)N1CCN(C(=O)c2ccc(Nc3nccn4c(-c5c[nH]nc5C(F)(F)F)cnc34)cc2Cl)CC1` [Example 440, 4-[2-chloro-4-[[3-[3-(trifluoromethyl)-1H-pyrazol-4-yl]imidazo[1,2-a]pyrazin-8-yl]amino]benzoyl]-N-[(3S,4S)-4-hydroxypyrrolidin-3-yl]piperazine-1-carboxamide formate], the IC90 is 0.497 µM. On to `Cc1cc(Nc2nccn3c(-c4cn(CC#N)nc4C(F)(F)F)cnc23)ccc1C(=O)N1CCN(C(=O)N[C@@H]2CNC[C@H]2O)CC1` [Example 419, 4-[4-[[3-[1-(cyanomethyl)-3-(trifluoromethyl)pyrazol-4-yl]imidazo[1,2-a]pyrazin-8-yl]amino]-2-methylbenzoyl]-N-[(3R,4R)-4-hydroxypyrrolidin-3-yl]piperazine-1-carboxamide formate], for which the IC90 was 0.654 µM.

Consider `CCc1cc(Nc2nccn3c(-c4cn(CC#N)nc4C(F)(F)F)cnc23)ccc1C(=O)NCC(=O)N[C@@H]1CCNC1` [Example 757, 4-[[3-[1-(cyanomethyl)-3-(trifluoromethyl)pyrazol-4-yl]imidazo[1,2-a]pyrazin-8-yl]amino]-2-ethyl-N-[2-oxo-2-[[(3R)-pyrrolidin-3-yl]amino]ethyl]benzamide formate], for which the IC90 is 0.689 µM.

For the compound `CCc1cc(Nc2nccn3c(-c4cn(CC(F)F)nc4C(F)(F)F)cnc23)ccc1C(=O)NCCOCCN` [Example 302, N-[2-(2-aminoethoxy)ethyl]-4-[[3-[1-(2,2-difluoroethyl)-3-(trifluoromethyl)pyrazol-4-yl]imidazo[1,2-a]pyrazin-8-yl]amino]-2-ethylbenzamide formate], the IC90 amounted to 0.17 µM. Still for that read-out and setting: the same measure for `Cc1cc(Nc2nccn3c(-c4cn(CC#N)nc4C(F)(F)F)cnc23)ccc1C(=O)NCC(=O)N[C@@H]1CCNC1` [Example 750, 4-[[3-[1-(cyanomethyl)-3-(trifluoromethyl)pyrazol-4-yl]imidazo[1,2-a]pyrazin-8-yl]amino]-2-methyl-N-[2-oxo-2-[[(3R)-pyrrolidin-3-yl]amino]ethyl]benzamide formate]: 0.625 µM; for `O=C(c1ccc(Nc2nccn3c(-c4c[nH]nc4C(F)(F)F)cnc23)cc1Cl)N1CCN(C(=O)[C@H]2C[C@H](O)CN2)CC1` [Example 452, [2-chloro-4-[[3-[3-(trifluoromethyl)-1H-pyrazol-4-yl]imidazo[1,2-a]pyrazin-8-yl]amino]phenyl]-[4-[(2R,4S)-4-hydroxypyrrolidine-2-carbonyl]piperazin-1-yl]methanone formate]: 0.401 µM.

With `CCc1cc(Nc2nccn3c(-c4cn(CC(F)F)nc4C(F)(F)F)cnc23)ccc1C(=O)NCCCNC(=O)[C@H]1CC[C@@H](N)C1` [Example 485, N-(3-((1S,3R)-3-aminocyclopentane-1-carboxamido)propsl)-4-((3-(1-(2,2-difluoroethyl)-3-(trifluoromethyl)-1H-pyrazol-4-yl)imidazo[1,2-a]pyrazin-8-yl)amino)-2-ethylbenzamide formate], the IC90 came to 0.189 µM.

The experiment is the same for the next values; noted with them: Acinetobacter baumannii, ATCC17961, 16 h, strain ATCC 17961, OD600 growth over 16 h, read-out: A. baumannii ATCC 17961 IC90.
With `Cc1cc(Nc2nccn3c(-c4c[nH]nc4C(F)(F)F)cnc23)cc(F)c1C(=O)NCCOCCN` [Example 80, N-[2-(2-aminoethoxy)ethyl]-2-fluoro-6-methyl-4-[[3-[3-(trifluoromethyl)-1H-pyrazol-4-yl]imidazo[1,2-a]pyrazin-8-yl]amino]benzamide], the IC90 stood at 0.737 µM.

Consider `O=C(c1ccc(Nc2nccn3c(-c4c[nH]nc4C(F)(F)F)cnc23)cc1Cl)N1CCN(C(=O)[C@H]2CCNC2)CC1` [Example 208, [2-chloro-4-[[3-[3-(trifluoromethyl)-1H-pyrazol-4-yl]imidazo[1,2-a]pyrazin-8-yl]amino]phenyl]-[4-[(3S)-pyrrolidine-3-carbonyl]piperazin-1-yl]methanone], for which the 90% effect concentration (IC90) was found to be 0.232 µM. On the same count and under the same terms, as for `Cc1cc(Nc2nccn3c(-c4cn(CC#N)nc4C(F)(F)F)cnc23)cc(F)c1C(=O)NCCOCCN` [Example 75, N-[2-(2-aminoethoxy)ethyl]-4-[[3-[1-(cyanomethyl)-3-(trifluoromethyl)pyrazol-4-yl]imidazo[1,2-a]pyrazin-8-yl]amino]-2-fluoro-6-methylbenzamide], the figure is 1.7 µM; as for `NCC(=O)N1CCN(C(=O)c2ccc(Nc3nccn4c(-c5cn(CC6CC6)nc5C(F)(F)F)cnc34)cc2F)CC1` [Example 814, 2-amino-1-(4-(4-((3-(1-(cyclopropyl-methyl)-3-(trifluoromethyl)-1H-pyrazol-4-yl)imidazo[1,2-a]pyrazin-8-yl)amino)-2-fluorobenzoyl)piperazin-1-yl)ethan-1-one hydrochloride], 0.14 µM; as for `CCc1cc(Nc2nccn3c(-c4c[nH]nc4C(F)(F)F)cnc23)ccc1C(=O)N1CCN(C(=O)C2CCNCC2)CC1` [Example 354, [2-ethyl-4-[[3-[3-(trifluoromethyl)-1H-pyrazol-4-yl]imidazo[1,2-a]pyrazin-8-yl]amino]phenyl]-[4-(piperidine-4-carbonyl)piperazin-1-yl]methanone hydrochloride], 0.918 µM. Take `CCc1cc(Nc2nccn3c(-c4cn(CC(F)F)nc4C(F)(F)F)cnc23)ccc1C(=O)NCCCNC(=O)[C@@H]1C[C@@H](O)CN1` [Example 727, (2S,4R)-N-(3-(4-((3-(1-(2,2-difluoroethyl)-3-(trifluoromethyl)-1H-pyrazol-4-yl)imidazo[1,2-a]pyrazin-8-yl)amino)-2-ethylbenzamido)propyl)-4-hydroxypyrrolidine-2-carboxamide]: the IC90 turned out to be 0.465 µM.

Regarding `N#CCn1cc(-c2cnc3c(Nc4ccc(C(=O)N5CC6(C5)CN(C(=O)[C@@H]5CCCN5)C6)c(Cl)c4)nccn23)c(C(F)(F)F)n1` [Example 636, (S)-2-(4-(8-((3-chloro-4-(6-prolyl-2,6-diazaspiro[3.3]heptane-2-carbonyl)phenyl)amino)imidazo[1,2-a]pyrazin-3-yl)-3-(trifluoromethyl)-1H-pyrazol-1-yl)acetonitrile], the concentration for an effect of 90% (IC90) was determined as 0.222 µM. On to `CN(C)C(=O)c1ccc(Nc2nccn3c(-c4c[nH]nc4C(F)(F)F)cnc23)cc1Cl` [Example 402, 2-chloro-N,N-dimethyl-4-[[3-[3-(trifluoromethyl)-1H-pyrazol-4-yl]imidazo[1,2-a]pyrazin-8-yl]amino]benzamide], for which the IC90 is 0.384 µM. `CCc1cc(Nc2nccn3c(-c4c[nH]nc4C(F)(F)F)cnc23)ccc1C(=O)NCCNC(=O)[C@H]1C[C@@H](N)C1` [Example 740, N-(2-((1s,3s)-3-aminocyclobutane-1-carboxamido)ethyl)-2-ethyl-4-((3-(3-(trifluoromethyl)-1H-pyrazol-4-yl)imidazo[1,2-a]pyrazin-8-yl)amino)benzamide]: the IC90 was determined as 0.529 µM. Turning to `NC(=O)c1ccc(Nc2nccn3c(-c4c[nH]nc4C(F)(F)F)cnc23)cc1Cl` [Example 404, 2-chloro-4-[[3-[3-(trifluoromethyl)-1H-pyrazol-4-yl]imidazo[1,2-a]pyrazin-8-yl]amino]benzamide], the IC90 amounted to 1.23 µM. On the same count and under the same terms, the same measure for `N#CCn1cc(-c2cnc3c(Nc4ccc(C(=O)N5CC(O)C5)c(Cl)c4)nccn23)c(C(F)(F)F)n1` [Example 236, 2-[4-[8-[3-chloro-4-(3-hydroxyazetidine-1-carbonyl)anilino]imidazo[1,2-a]pyrazin-3-yl]-3-(trifluoromethyl)pyrazol-1-yl]acetonitrile]: 0.193 µM; for `N#CCn1cc(-c2cnc3c(Nc4ccc(C(=O)NCCNCC(=O)NC5CNC5)c(Cl)c4)nccn23)c(C(F)(F)F)n1` [Example 816, N-(2-(2-(azetidin-3-ylamino)-2-oxoethyl)amino) ethyl)-2-chloro-4-((3-(1-(cyanomethyl)-3-(trifluoromethyl)-1H-pyrazol-4-yl)imidazo[1,2-a]pyrazin-8-yl)amino) benzamide formate]: 0.29 µM.

The experiment is the same for the next values; noted with them: read-out: A. baumannii ATCC 17961 IC90, strain ATCC 17961, OD600 growth over 16 h, formate.
For `NC1CC(C(=O)N2CCN(C(=O)c3ccc(Nc4nccn5c(-c6c[nH]nc6C(F)(F)F)cnc45)cc3Cl)CC2)C1` (stereo not drawn) [Example 330, [4-(3-aminocyclobutanecarbonyl)piperazin-1-yl]-[2-chloro-4-[[3-[3-(trifluoromethyl)-1H-pyrazol-4-yl]imidazo[1,2-a]pyrazin-8-yl]amino]phenyl]methanone formate], the IC90 was 0.275 µM.

The experiment is the same for the next values; noted with them: strain ATCC 17961, OD600 growth over 16 h, read-out: A. baumannii ATCC 17961 IC90.
As for `N#CCn1cc(-c2cnc3c(Nc4ccc(C(=O)N5CCN(C(=O)NC6CNC6)CC5)c(Cl)c4)nccn23)c(C(F)(F)F)n1` [Example 214, N-(azetidin-3-yl)-4-[2-chloro-4-[[3-[1-(cyanomethyl)-3-(trifluoromethyl)pyrazol-4-yl]imidazo[1,2-a]pyrazin-8-yl]amino]benzoyl] piperazine-1-carboxamide formate], the IC90 was 0.349 µM.

These data come from patent publication US20230203043A1, “NOVEL IMIDAZOPYRAZINE DERIVATIVES” (Hoffmann-La Roche Inc., priority 2020, published 2023).
